Test results: ChEMBL document CHEMBL6096675 (J Med Chem, 2025)
Activity calls are given as the source filed them. The calls are words filed in the database; no cut-off is given here.

Experiments:
[1] = Plasma concentration in SCID mouse xenografted with human NCI-H838 cells at 10 mg/kg, iv measured after 24 hrs by LC-MS/MS analysis; assay type: ADME, organism-based
SK-MEL-5 = assay: Antiproliferative activity against human SMARCA4-deficient SK-MEL-5 cells assessed as inhibition of cell growth measured after 7 days by WST-8 assay; assay type: functional; conditions: SK-MEL-5, 168 h, time 7 day
[2] = Antiproliferative activity against human SMARCA4-deficient NCI-H1944 cells assessed as inhibition of cell growth measured after 7 days by WST-8 assay; assay type: functional; conditions: NCI-H1944, 168 h, time 7 day
[3] = Antiproliferative activity against human SMARCA4-deficient NCI-H1693 cells assessed as inhibition of cell growth measured after 7 days by WST-8 assay; assay type: functional; conditions: NCI-H1693, 168 h, time 7 day
NCI-H1792 [4] = assay: Antiproliferative activity against human SMARCA4-wild type NCI-H1792 cells assessed as inhibition of cell growth measured after 7 days by WST-8 assay; assay type: functional; conditions: NCI-H1792, 168 h, time 7 day
[5] = Antiproliferative activity against human […] NCI-H1975 cells assessed as inhibition of cell growth measured after 7 days by WST-8 assay; assay type: functional; conditions: NCI-H1975, 168 h, time 7 day
[6] = Antiproliferative activity against human SMARCA4-deficient NCI-H838 cells assessed as maximal inhibition of cell growth measured after 7 days by WST-8 assay relative to control; assay type: functional; conditions: time 7 day
NCI-H1792 [7] = assay: Antiproliferative activity against human SMARCA4-wild type NCI-H1792 cells assessed as maximal inhibition of cell growth measured after 7 days by WST-8 assay relative to control; assay type: functional; conditions: time 7 day
[8] = Antiproliferative activity against human […] NCI-H1975 cells assessed as maximal inhibition of cell growth measured after 7 days by WST-8 assay relative to control; assay type: functional; conditions: time 7 day
[9] = Half life in mouse at 1 mg/kg, iv; assay type: ADME, organism-based; conditions: in vivo
[10] = Cmax in mouse at 1 mg/kg, iv; assay type: ADME, organism-based; conditions: in vivo
[11] = Volume of distribution of steady state in mouse at 1 mg/kg, iv; assay type: ADME, organism-based; conditions: in vivo, read-out: Vdss
[12] = Plasma concentration in mouse xenografted with human H838 cells at 10 mg/kg, iv single dose measured after 168 hrs by LC-MS/MS analysis; assay type: ADME, organism-based, NCI-H838; conditions: in vivo
[13] = Plasma concentration in mouse xenografted with human MV4-11 cells at 30 mg/kg, iv single dose measured after 96 hrs by LC-MS/MS analysis; assay type: ADME, organism-based
[14] = Drug uptake in tumor of mouse xenografted with human MV4-11 cells at 30 mg/kg, iv single dose measured after 168 hrs by LC-MS/MS analysis; assay type: ADME, organism-based, Neoplasm; conditions: read-out: Drug uptake
Cytochrome P450 1A2 = target: T1, Cytochrome P450 1A2 (Homo sapiens, UniProt P05177); assay: Inhibition of CYP1A2 (unknown origin); assay type: ADME
T1 sequence (P05177 whole entry): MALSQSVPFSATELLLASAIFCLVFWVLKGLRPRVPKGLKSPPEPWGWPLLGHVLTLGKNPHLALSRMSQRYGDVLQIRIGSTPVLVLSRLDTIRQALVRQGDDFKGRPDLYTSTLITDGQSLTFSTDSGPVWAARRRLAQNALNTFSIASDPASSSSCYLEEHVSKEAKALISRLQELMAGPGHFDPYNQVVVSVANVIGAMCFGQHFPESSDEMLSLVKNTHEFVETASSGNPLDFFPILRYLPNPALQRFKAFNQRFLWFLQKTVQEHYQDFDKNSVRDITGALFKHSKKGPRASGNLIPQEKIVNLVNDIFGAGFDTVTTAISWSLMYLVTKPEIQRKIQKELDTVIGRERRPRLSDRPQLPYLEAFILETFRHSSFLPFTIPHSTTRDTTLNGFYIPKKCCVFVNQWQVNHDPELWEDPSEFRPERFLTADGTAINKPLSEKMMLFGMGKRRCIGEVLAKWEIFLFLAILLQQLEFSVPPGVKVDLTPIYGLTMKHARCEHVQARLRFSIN

Cytochrome P450 2C8 = target: T2, Cytochrome P450 2C8 (Homo sapiens, UniProt P10632); assay: Inhibition of CYP2C8 (unknown origin); assay type: ADME
T2 sequence (P10632 whole entry): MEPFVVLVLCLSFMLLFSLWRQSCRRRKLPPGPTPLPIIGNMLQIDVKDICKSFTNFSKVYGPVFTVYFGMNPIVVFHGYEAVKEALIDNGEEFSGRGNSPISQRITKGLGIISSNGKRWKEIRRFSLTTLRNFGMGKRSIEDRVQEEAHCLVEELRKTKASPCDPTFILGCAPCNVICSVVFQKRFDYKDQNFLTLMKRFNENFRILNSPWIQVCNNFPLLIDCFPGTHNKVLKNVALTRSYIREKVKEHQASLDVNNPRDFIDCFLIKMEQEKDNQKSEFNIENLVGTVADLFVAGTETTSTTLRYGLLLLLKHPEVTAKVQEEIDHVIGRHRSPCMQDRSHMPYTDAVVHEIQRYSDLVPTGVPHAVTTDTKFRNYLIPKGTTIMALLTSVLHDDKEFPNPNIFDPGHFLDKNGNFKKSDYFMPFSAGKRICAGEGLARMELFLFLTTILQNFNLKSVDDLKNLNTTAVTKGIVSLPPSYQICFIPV

Cytochrome P450 2B6 = target: T3, Cytochrome P450 2B6 (Homo sapiens, UniProt P20813); assay: Inhibition of CYP2B6 (unknown origin); assay type: ADME
T3 sequence (P20813 whole entry): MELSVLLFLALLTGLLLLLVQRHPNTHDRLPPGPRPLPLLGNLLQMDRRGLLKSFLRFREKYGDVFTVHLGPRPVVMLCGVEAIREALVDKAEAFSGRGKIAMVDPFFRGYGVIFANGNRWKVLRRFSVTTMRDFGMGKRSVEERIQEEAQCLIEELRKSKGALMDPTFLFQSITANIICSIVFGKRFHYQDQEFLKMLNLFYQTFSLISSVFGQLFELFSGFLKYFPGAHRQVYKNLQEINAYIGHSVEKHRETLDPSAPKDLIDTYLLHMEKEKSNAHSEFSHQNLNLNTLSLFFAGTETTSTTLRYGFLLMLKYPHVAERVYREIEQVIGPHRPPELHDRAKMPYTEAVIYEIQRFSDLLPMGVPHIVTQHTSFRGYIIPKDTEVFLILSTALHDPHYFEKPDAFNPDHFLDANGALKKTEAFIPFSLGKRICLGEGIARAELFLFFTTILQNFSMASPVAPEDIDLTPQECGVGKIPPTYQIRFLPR

[15] = Toxicity in SCID mouse xenografted with human H838 cells assessed as body weight loss at 30 mg/kg, iv measured after 3 weeks; assay type: organism-based; conditions: in vivo, 504 h
NCI-H838 = assay: In vivo anti-tumor activity against human NCI-H838 cells xenografted in SCID mouse assessed as assessed as inhibition of tumor growth at 30 mg/kg, iv treated for 3 weeks measured after treatment stop; assay type: functional, organism-based
[16] = Toxicity in SCID mouse assessed as body weight loss at 50 mg/kg, iv twice a week; assay type: organism-based; conditions: in vivo
[17] = Toxicity in SCID mouse assessed as toxicity signs at 50 mg/kg, iv twice a week; assay type: organism-based; conditions: in vivo

concentration at 24 h [1]: 50 ng/mL
GI50 (SK-MEL-5): 1.5 nM
GI50 (NCI-H1792 [4]): > 10000 nM
half-life [9]: 8.4 h
Cmax [10]: 2230 ng/mL
Vd [11]: 1.9 L/kg
Cp [12]: Below_limit_of_detection
concentration at 96 h [13]: 56 ng/mL
concentration at 168 h [14]: 932 ng/mL
IC50 (Cytochrome P450 1A2): > 100000 nM
IC50 (Cytochrome P450 2C8): > 100000 nM
IC50 (Cytochrome P450 2B6): > 100000 nM
SMILES: Cc1ncsc1-c1ccc([C@H](CN2CCOCC2)NC(=O)[C@@H]2C[C@@H](O)CN2C(=O)[C@@H](n2cc([C@H]3CC[C@H](CN4CCC(c5ccc6c(c5)-n5c(nc(=O)c7c(Cl)cccc75)C65CCCCC5)CC4)CC3)nn2)C(C)(C)C)cc1
GI50 [2]: 9.8 nM
GI50 [3]: 4.8 nM
GI50 [5]: > 10000 nM
Imax [6]: 80%
Imax (NCI-H1792 [7]): 80%
Imax [8]: 65%
Activity [15]: Non-toxic
Activity (NCI-H838): inactive
Activity [16]: Non-toxic
Activity [17]: Non-toxic
